Patent publication US6573291B2, “Method and use” (Biovitrum AB, priority 2000, dated 2003)

Columns and labels:
[1] = target: T1, human GLP-1 receptor (Homo sapiens, UniProt P43220); experiment: Inhibition of 125I-GLP-1 binding to human recombinant GLP-1 receptors (SPA); conditions: 125I-GLP-1, membranes of COS7 cells transfected with human GLP-1 receptor, Cheng-Prushoff equation; read-out: K1 value, inhibition of the binding of GLP-1 to its receptor
T1 construct: expressed in transfected cells; host or cells: COS7 cells (COShGLPr, clone #16)
Method: Wheatgerm agglutinin scintillation proximity assay (SPA) beads (500 mg) from Amersham (RPNQ 0001) were diluted into 50 ml of assay buffer (Assay buffer consisted of 150 mM NaCl, 10 mM MgCl2, 1 mM EDTA, and 20 mM HEPES, pH 7.4). The SPA beads were combined (1:1 v/v) with a crude membrane preparation from COS7 cells transfected with the human GLP-1 receptor at a concentration of 30 μg/ml/well. These cells (COShGLPr, clone #16) were grown in Dulbecco's Modified Eagle Medium with high glucose (DMEM Gibco, #11965-092) supplemented with 10% heat-inactivated fetal bovine serum (Gibco, #1600-044), 2 mM L-Glutamine (Gibco #25030-081), and 10 μg/ml Gentamicin (Gibco #15710-064) with 705 μg/ml Geneticin (G418 sulfate, Gibco) (DMEM complete). The mixture was incubated for two hours at room temperature with constant rotation. The free membranes were washed away by centrifuging the mixture for 5 minutes at 800 rpm in a table-top GLCl (Sorvall) centrifuge. The supernatant was discarded and the pellet was resuspended in 50 ml assay buffer+0.1% bovine serum albumin. […] The plates were counted approximately 10 h later in a Microbeta Trilux liquid scintillation counter (WALLAC). […] Binding constants (Ki) were calculated with the Cheng-Prushoff equation (Cheng Y C and Prushoff W H, Biochem Pharmacol 22:3099, 1973). […]

[2] = system: RIN-m5F cells; experiment: Inhibition of GLP-1 stimulated insulin release in RIN-m5F cells; assay type: cell-based; conditions: for GLP-1 induced insulin release: 3 nM GLP-1, 1 h, compounds 0.1 μM to 30 μM, FIG. 3
Method: The RIN-m5F cells were grown as in Example 2. The cells were plated in 96-well plates (10,000 per well) at a density of 2×10^5 cells per ml and grown for 3 days. The culture medium was changed the day before the experiment. On the day of the experiment, the medium was removed and replaced with serum-free RPMI 1640 containing 0.1% bovine serum albumin (serum-free medium). Dilutions of compounds prepared in serum-free medium from 10 mM DMSO stock solutions to give final concentrations from 0.1 μM to 30 μM were added. The cells were stimulated with 3 nM GLP-1 in a total volume of 200 μl for 1 h and the concentration of insulin in the medium was measured in an ELISA (Mercodia AB). The insulin release in the presence of medium was 6.3±1.4 ng/ml and 10.5±1.4 ng/ml in the presence of 3 nM GLP-1.

[3] = target: T2, endogenous GLP-1 receptor coupled to adenylate cyclase (Rattus norvegicus, UniProt P32301); experiment: Inhibition of GLP-1 induced cAMP signaling in RIN-m5F insulinoma cells; assay type: cell-based; conditions: 3 nM GLP-1, 15 minutes, FIG. 2
T2 construct: host or cells: RIN-m5F insulinoma cells
T2 sequence (P32301 22-463): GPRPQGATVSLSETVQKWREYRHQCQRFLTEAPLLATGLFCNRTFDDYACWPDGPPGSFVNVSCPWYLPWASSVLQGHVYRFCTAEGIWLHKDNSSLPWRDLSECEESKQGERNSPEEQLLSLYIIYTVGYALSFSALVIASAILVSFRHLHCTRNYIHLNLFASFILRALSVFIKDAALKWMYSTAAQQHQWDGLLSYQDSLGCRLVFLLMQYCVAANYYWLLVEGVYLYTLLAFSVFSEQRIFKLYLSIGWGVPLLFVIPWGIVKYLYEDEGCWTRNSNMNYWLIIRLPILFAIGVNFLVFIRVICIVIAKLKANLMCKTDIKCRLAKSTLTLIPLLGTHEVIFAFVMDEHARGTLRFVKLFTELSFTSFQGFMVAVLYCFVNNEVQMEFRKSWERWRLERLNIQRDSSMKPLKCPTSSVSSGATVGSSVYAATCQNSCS
Method: The cells were obtained from the American Type Culture Collection (ATCC, #203641 F13132) and grown in RPMI 1640 (GIBCO, #21870-076) supplemented with 2 mM L-glutamine, 10% heat inactivated fetal bovine serum, and 10 μg/ml Gentamicin.
RIN-m5F cells were plated in 12 well plates at a density of 2.0×10^5 cells per ml and grown for 4 days in complete RPMI 1640 with 10% fetal bovine serum; the medium was changed the day before experiment. The cells were from 70-90% confluent at the time of the experiment. On the day of the experiment, the incubation medium was removed and the cells were washed with fresh serum-free RPMI 1640 containing 0.1% bovine serum albumin (serum-free medium). One ml DMEM complete with 1 mM 3-isobutyl-1-methylxanthine (Sigma) was added and the plates were placed at 37° C. and 5.0% CO2 for 15 minutes before initiation of the experiment. Fresh compounds were acquired and dissolved as 10 mM solutions in DMSO. A further 1:10 dilution was prepared in DMEM and after the incubation period, the compounds were added to the wells at 30 μM final concentration. The final concentration of DMSO was always 0.3%. The wells were treated with or without GLP-1 (3 nM). The plates were then incubated at 37° C. and 5.0% CO2 for 15 minutes. […] The solution was mixed well and quantitatively transferred to microcentrifuge tubes with 1 wash of 0.5 ml of the 50 mM NaOH solution. […]

T1 sequence (P43220 24-463): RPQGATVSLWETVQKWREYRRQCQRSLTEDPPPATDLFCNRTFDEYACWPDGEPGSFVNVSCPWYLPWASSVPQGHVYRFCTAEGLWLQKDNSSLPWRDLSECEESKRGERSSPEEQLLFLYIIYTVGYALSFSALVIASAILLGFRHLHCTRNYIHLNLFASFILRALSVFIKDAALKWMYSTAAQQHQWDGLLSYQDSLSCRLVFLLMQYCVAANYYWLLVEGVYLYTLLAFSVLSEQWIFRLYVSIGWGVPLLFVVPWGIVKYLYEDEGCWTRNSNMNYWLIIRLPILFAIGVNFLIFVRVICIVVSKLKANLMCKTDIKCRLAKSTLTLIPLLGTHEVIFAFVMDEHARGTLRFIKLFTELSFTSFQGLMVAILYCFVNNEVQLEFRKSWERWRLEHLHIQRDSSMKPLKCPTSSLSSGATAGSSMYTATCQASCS

Ki [1] [nM] | Compound | GLP-1 induced insulin release [2] | GLP-1 stimulated cAMP production [3] | insulin release ([2]; in the presence of 3 nM GLP-1 alone, 1 h (medium 6.3±1.4 ng/ml)) [ng/mL]
~1000 | Cc1nn(C)c(/C=C/Nc2cc(Cl)ccc2O)c1[N+](=O)[O-] [Compound A, 4-chloro-2-{[(E)-2-(1,3-dimethyl-4-nitro-1H-pyrazol-5-yl)ethenyl]amino}phenol] | substantial reduction of the GLP-1 induced insulin release | concentration dependently decreased GLP-1 stimulated cAMP production to a level close to that obtained in the absence of GLP-1 | 
 | Cc1nn(C)c(/C=C/Nc2ccc(F)cc2)c1[N+](=O)[O-] [Compound B, 4-fluoro-1-{[(E)-2-(1,3-dimethyl-4-nitro-1H-pyrazol-5-yl)ethenyl]amino}benzene] | substantial reduction of the GLP-1 induced insulin release |  | 
 | Cc1nn(C)c(/C=C/Nc2ccc(OC(F)(F)F)cc2)c1[N+](=O)[O-] [Compound C, 4-trifluoromethoxy-1-{[(E)-2-(1,3-dimethyl-4-nitro-1H-pyrazol-5-yl)ethenyl]amino}benzene] | substantial reduction of the GLP-1 induced insulin release |  | 
 | COc1ccc(N/C=C/c2c([N+](=O)[O-])c(C)nn2C)c(OC)c1 [Compound D, 2,4-dimethoxy-1-{[(E)-2-(1,3-dimethyl-4-nitro-1H-pyrazol-5-yl)ethenyl]amino}benzene] | substantial reduction of the GLP-1 induced insulin release |  | 
 | Glucagon-like peptide 1(7-36)amide [GLP-1, reference compound] |  |  | 10.5 ± 1.4
